In patent publication US20080132446A1, “Uses of neuronal pannexins for therapy and diagnosis in mammals” (INSTITUT PASTEUR, priority 2003, published 2008):
Values joined by “and” are separate entries in the source; they are usually repeats but may differ in a detail not shown here. Identical values can stand only once. “Also recorded” adds a separate entry of the source.

Assays:
Format in all cases: cell-based
Px1 hemi-channels = biological target: T1, Px1 hemi-channels (Rattus norvegicus, UniProt P60570); assay: Px1 hemi-channel currents in single Xenopus oocytes (two-electrode voltage-clamp)
T1 construct: expressed in transfected cells; host or cells: Xenopus laevis oocytes injected with in vitro transcribed RNA (pBSxG vector) plus antisense to endogenous Cx38
Method: For physiological analysis, cells were injected with a total volume of 40 nl of either an antisense oligonucleotide (3 ng/cell) to suppress the endogenous Xenopus Cx38 (30), or a mixture of antisense plus the specified RNA (20-80 ng/cell). The ability of pannexins to form hemi-channels was assessed in single oocytes 2-4 days after RNA injection, using a two-electrode voltage-clamp.
Whole-cell membrane currents (Im) were measured from single oocytes co-injected with pannexin RNAs and an oligonucleotide antisense to Xenopus Cx38 (FIG. 3A). Cells were initially clamped at a membrane potential (Vm) of −40 mV and depolarizing steps lasting 2 sec were applied in 10 mV increments up to +60 mV (bottom traces).
(§1) Stage V-VI cells were individually selected under a dissecting microscope and cultured thereafter in control medium at 18° C. For physiological analysis, all cells were injected with a total volume of 40 nl of either an antisense oligonucleotide (3 ng/cell) to suppress the endogenous Xenopus Cx38 (30; 51), or a mixture of antisense (as above) plus the specified pannexin or connexin RNA. The following amounts of RNAs were injected: 40-80 ng/cell for Px1 and Px2 RNAs, either separately or co-injected at a 1:1 ratio; 4 ng/cell for Cx46; 10-20 ng/cell for Cx52.6. For analysis of Cx46 hemi-channels, the extracellular Ca^2+ concentration was raised to 2.9 mM to prevent the lysis of the injected oocytes that occurs in control medium, which contains 0.9 mM Ca^2+ (53). To characterize hemi-channel activity, current recordings were performed in single oocytes 24-96 hr after RNA injection, using a two-electrode voltage-clamp procedure.
(§2) The setup, hardware and software used for electrophysiological measurements and data analysis were as previously described (54; 49). Cells were clamped at −40 mV, and whole cell currents recorded in response to depolarizing voltage steps (from −20 to +60 mV in 20 mV increments) imposed for 2 sec. Current outputs were filtered at 200 Hz and sampled at 500 Hz.
All experiments were carried out at 18° C. Carbenoxolone (the succinyl ester of glycyrrhetinic acid), β-glycyrrhetinic acid and flufenamic (Sigma-Aldrich) were prepared freshly by dissolving them in either water (in the case of carbenoxolone) or dimethyl sulfoxide (DMSO), whose final concentration never exceeded 0.1%. […] Oocytes were placed on a Teflon tubing in a perfusion chamber and drugs were delivered using an electronically controlled gravity flow perfusion system (ALA Scientific Instruments, Westbury, N.Y.). […] Current-voltage (I-V) relationships were generated by plotting peak current values above holding currents (ΔIm) versus membrane potential. The time constants (τ) of voltage-dependent transitions of hemi-channel currents were calculated using data fitting functions in Origin 6.0 (Microcal Software, Northampton, Mass.). In all experiments, positive controls showing the effect of the tested drugs were routinely included.

Cx46 hemi-channels = biological target: T2, Cx46 hemi-channels (Rattus norvegicus, UniProt P29414); assay: Cx46 hemi-channel currents in single Xenopus oocytes (two-electrode voltage-clamp)
T2 construct: expressed in transfected cells; host or cells: Xenopus laevis oocytes injected with Cx46 RNA (4 ng/cell) plus antisense to endogenous Cx38
Method: as §1, §2
All experiments were carried out at 18° C. Carbenoxolone (the succinyl ester of glycyrrhetinic acid), β-glycyrrhetinic acid and flufenamic (Sigma-Aldrich) were prepared freshly by dissolving them in either water (in the case of carbenoxolone) or dimethyl sulfoxide (DMSO), whose final concentration never exceeded 0.1%. […] Cells were incubated for 15-30 minutes in the presence of the different drugs and reversibility was recorded after extensive washings in control medium. […] The time constants (τ) of voltage-dependent transitions of hemi-channel currents were calculated using data fitting functions in Origin 6.0 (Microcal Software, Northampton, Mass.). […]

Px1/Px2 hemi-channels = biological target: T3, Px1/Px2 hemi-channels (Rattus norvegicus, UniProt P60570+P60571); assay: Heteromeric Px1/Px2 hemi-channel currents in single Xenopus oocytes (two-electrode voltage-clamp)
T3 construct: expressed in transfected cells; host or cells: Xenopus laevis oocytes co-injected with Px1 and Px2 RNA (1:1) plus antisense to endogenous Cx38
Method: as §1, §2
All experiments were carried out at 18° C. Carbenoxolone (the succinyl ester of glycyrrhetinic acid), β-glycyrrhetinic acid and flufenamic (Sigma-Aldrich) were prepared freshly by dissolving them in either water (in the case of carbenoxolone) or dimethyl sulfoxide (DMSO), whose final concentration never exceeded 0.1%. […] Oocytes were placed on a Teflon tubing in a perfusion chamber and drugs were delivered using an electronically controlled gravity flow perfusion system (ALA Scientific Instruments, Westbury, N.Y.). Cells were incubated for 15-30 minutes in the presence of the different drugs and reversibility was recorded after extensive washings in control medium. Current-voltage (I-V) relationships were generated by plotting peak current values above holding currents (ΔIm) versus membrane potential. The time constants (τ) of voltage-dependent transitions of hemi-channel currents were calculated using data fitting functions in Origin 6.0 (Microcal Software, Northampton, Mass.). In all experiments, positive controls showing the effect of the tested drugs were routinely included.

T3 sequence (P60570 whole entry): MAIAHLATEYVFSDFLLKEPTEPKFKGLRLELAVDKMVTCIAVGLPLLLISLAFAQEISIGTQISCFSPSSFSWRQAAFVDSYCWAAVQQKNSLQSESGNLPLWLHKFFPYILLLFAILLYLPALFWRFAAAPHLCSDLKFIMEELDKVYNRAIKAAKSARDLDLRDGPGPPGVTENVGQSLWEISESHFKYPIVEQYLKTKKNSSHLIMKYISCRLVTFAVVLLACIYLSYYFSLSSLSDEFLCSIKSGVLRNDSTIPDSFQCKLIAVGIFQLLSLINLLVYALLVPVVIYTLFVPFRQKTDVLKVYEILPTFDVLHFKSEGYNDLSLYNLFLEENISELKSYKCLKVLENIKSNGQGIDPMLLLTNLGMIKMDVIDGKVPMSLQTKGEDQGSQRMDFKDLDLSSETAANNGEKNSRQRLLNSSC
T3 sequence (P60571 11-674): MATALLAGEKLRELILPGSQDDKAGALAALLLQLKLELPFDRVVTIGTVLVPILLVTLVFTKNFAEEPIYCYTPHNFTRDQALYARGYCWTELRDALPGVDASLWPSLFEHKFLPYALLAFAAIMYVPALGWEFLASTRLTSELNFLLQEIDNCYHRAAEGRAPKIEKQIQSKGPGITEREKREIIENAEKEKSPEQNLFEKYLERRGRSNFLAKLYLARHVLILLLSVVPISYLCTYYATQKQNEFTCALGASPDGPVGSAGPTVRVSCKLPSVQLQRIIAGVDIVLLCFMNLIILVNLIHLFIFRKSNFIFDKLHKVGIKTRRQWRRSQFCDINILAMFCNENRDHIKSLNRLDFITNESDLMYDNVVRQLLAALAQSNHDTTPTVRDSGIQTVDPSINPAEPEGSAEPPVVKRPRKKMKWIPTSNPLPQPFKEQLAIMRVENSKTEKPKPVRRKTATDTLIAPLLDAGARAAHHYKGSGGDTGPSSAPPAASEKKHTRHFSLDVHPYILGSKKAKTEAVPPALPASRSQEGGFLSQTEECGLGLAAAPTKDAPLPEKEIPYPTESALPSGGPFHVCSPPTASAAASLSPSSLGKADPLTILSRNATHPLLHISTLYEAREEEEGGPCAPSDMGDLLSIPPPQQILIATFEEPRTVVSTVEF
T1 sequence (P60570 whole entry): as the sequence (P60570 whole entry) above

SMILES: CC1(C)[C@@H](O)CC[C@]2(C)[C@H]3C(=O)C=C4[C@H]5C[C@@](C)(C(=O)O)CC[C@]5(C)CC[C@@]4(C)[C@]3(C)CC[C@@H]12 [βGA, β-glycyrrhetinic acid]
- effect on Px1 hemi-channel currents (Px1 hemi-channels; 50 μM, 30 min incubation, reversible on washout): robust and reversible decrease; also recorded: strongly blocked

SMILES: CC1(C)[C@@H](OC(=O)CCC(=O)O)CC[C@]2(C)[C@H]3C(=O)C=C4[C@@H]5C[C@@](C)(C(=O)O)CC[C@]5(C)CC[C@@]4(C)[C@]3(C)CC[C@@H]12 [carbenoxolone]
- effect on I-V relationship of Cx46-expressing oocytes (Cx46 hemi-channels; 10 μM CBX, 30 min incubation): virtually identical to that measured in control medium
- effect on time constant (τ) of Px1 channel closure (Px1 hemi-channels; 3 μM CBX, +60 mV): gated much faster than in control medium
- time constants (τ) of Px1 channel closure, faster than in control medium (Px1 hemi-channels; 3 μM CBX, depolarized to +60 mV from −40 mV, first order exponential decay fit): approximately 10 times
- decrease of Px1 hemi-channel currents (Px1 hemi-channels; 10 μM CBX, 30 min incubation): 50-60%
- effect on Px1 currents (Px1 hemi-channels; 30 μM carbenoxolone, 10-30 min incubation): completely suppressed Px1 currents
- peak amplitude of Px1 currents at +60 mV (Px1 hemi-channels; 30 μM carbenoxolone, 10-30 min incubation, control medium 1189±170 nA, n=4): 255±47 nA
- effect on Px1 hemi-channel currents (Px1 hemi-channels; 50 μM, 30 min incubation, reversible on washout, listed as CBX): robust and reversible decrease; also recorded: strongly blocked
- Hill coefficient (Px1 hemi-channels; concentration dependence of blockade of Px1 hemi-channel currents): ~1
- IC50 (Px1 hemi-channels; normalized peak currents at +60 mV, fit to Hill equation, 3-9 cells, read-out: IC50 of blockade of Px1 hemi-channel currents): 5 µM and ~5 µM
- reversibility of inhibition of Px1 hemi-channels (Px1 hemi-channels; up to highest dose tested (100 μM), washout and 30 min in control medium): always reversible
- effect on Px1 hemi-channel currents (Px1 hemi-channels; very low CBX concentrations (<1 μM)): ineffective
- decrease of Px1/Px2 hemi-channel currents (Px1/Px2 hemi-channels; 10 μM CBX, 30 min incubation): 50-60%
- current amplitude at the +60 mV depolarization step (Px1/Px2 hemi-channels; 10 μM CBX, control medium 612±50 nA, n=6 cells): 266±24 nA
- current amplitude at the +60 mV depolarization step after reversibility period (Px1/Px2 hemi-channels; after 10 μM CBX, washout and 30 min in control medium, n=6 cells): 541±70 nA

SMILES: O=C(O)c1ccccc1Nc1cccc(C(F)(F)F)c1 [flufenamic acid]
- effect on Cx46 hemi-channels (Cx46 hemi-channels; 30 μM FFA, 30 min application, starting with the 0 mV depolarization step): strong (P<0.005) and fully reversible inhibition
- effect on Cx46 hemi-channel currents (Cx46 hemi-channels; increasing FFA concentrations, 300 μM FFA, 30 min, listed as FFA): virtually suppressed Cx46 hemi-channels; also recorded: almost complete blockade
- inhibition of Px1 currents (Px1 hemi-channels; 30 μM FFA, 30 min, at the more positive potentials): 10-15%
- effect on time constant (τ) of Px1 channel closure (Px1 hemi-channels; 300 μM FFA, +60 mV, listed as FFA): did not affect the time constant of channel closure; also recorded: did not show any appreciable change
- extent of Px1 channel blockade (Px1 hemi-channels; highest FFA concentration used (300 μM), +60 mV): ≤ 33%
- effect on Px1 hemi-channels (Px1 hemi-channels; increasing FFA concentrations up to 300 μM, 30 min, listed as FFA): moderate inhibition of Px1 currents; also recorded: modest inhibition of Px1 hemi-channels only at the highest dose
- inhibitory effect on pannexins (Px1 hemi-channels; summary statement): only a modest inhibitory effect
- inhibition of Px1/Px2 current amplitudes at +60 mV (Px1/Px2 hemi-channels; 30 μM FFA, n=12): about 15%
- Px1/Px2 current amplitude at +60 mV (Px1/Px2 hemi-channels; 30 μM FFA, 603±123 nA in MB, n=12): 504±101 nA
- Px1/Px2 current amplitude at +60 mV (Px1/Px2 hemi-channels; 300 μM FFA, 609±135 nA before, n=11): 448±104 nA
- inhibition at 300 µM (Px1/Px2 hemi-channels; highest FFA concentration (300 μM), n=11, read-out: inhibition of Px1/Px2 current amplitudes at +60 mV): 27%
